Reference: the supplement of paper PMC10307832

Tests used:
Assay in all cases: relative viability (nuclei count vs DMSO), 5 days (fraction); higher = more cells survive
[1] = system: LCLC-97TM1
In short: (§1)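 Relative viability is defined as nuclei in treated wells over nuclei in vehicle wells. Duplicate plates were run and medians reported. Lung cancer cell lines in 1536-well plates were dosed by pin tool one day after seeding, with one drug or with a fixed anchor-drug dose plus five library-drug doses (not always all listed) in √10 steps, and nuclei were counted after 5 days.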

[2] = system: HCC-366
In short: as §1

[3] = system: EBC-1
In short: as §1

[4] = system: NCI-H2009
In short: as §1

[5] = system: NCI-H1650
In short: as §1

[6] = system: NCI-H650
In short: as §1

[7] = system: RERF-LC-KJ
In short: as §1

[8] = system: ChaGo-K-1
In short: as §1

[9] = system: COR-L23
In short: as §1

[10] = system: NCI-H460
In short: as §1

[11] = system: SW 1573
In short: as §1

[12] = system: NCI-H2126
In short: as §1

[13] = system: LOU-NH91
In short: as §1

[14] = system: NCI-H1993
In short: as §1

[15] = system: HARA
In short: as §1

[16] = system: 201T
In short: as §1

[17] = system: NCI-H441
In short: as §1

[18] = system: HCC-78
In short: as §1

[19] = system: A-427
In short: as §1

[20] = system: LCLC-103H
In short: as §1

[21] = system: NCI-H1734
In short: as §1

[22] = system: NCI-H2023
In short: as §1

[23] = system: HCC-15
In short: as §1

`CCCCCCCCCCCC1=C(O)C(=O)C=C(O)C1=O` [Embelin] + COc1cc2c(Oc3ccc(NC(=O)C4(C(=O)Nc5ccc(F)cc5)CC4)cc3F)ccnc2cc1OCCCN1CCOCC1 [Foretinib] (partner 0.25 µM) gave a relative viability ([1]; first compound 0.08 µM) of 0.988, a relative viability ([1]; first compound 0.8 µM) of 0.943 and a relative viability ([1]; first compound 2.53 µM) of 1.04. The relative viability ([1]; first compound 8 µM) was 0.899, the relative viability ([2]; first compound 0.08 µM) was 0.906 and the relative viability ([2]; first compound 0.8 µM) was 1.03. The relative viability ([2]; first compound 2.53 µM) was 0.94, the relative viability ([2]; first compound 8 µM) was 0.99 and the relative viability ([3]; first compound 0.08 µM) was 0.0948. For the same compound, the relative viability ([3]; first compound 0.8 µM) was 0.124, the relative viability ([3]; first compound 2.53 µM) was 0.102 and the relative viability ([3]; first compound 8 µM) was 0.103. The relative viability ([4]; first compound 0.08 µM) was 1.24, the relative viability ([4]; first compound 0.8 µM) was 1.33 and the relative viability ([4]; first compound 2.53 µM) was 1.24. For the same compound, the relative viability ([4]; first compound 8 µM) was 1.17, the relative viability ([5]; first compound 0.08 µM) was 1.09 and the relative viability ([5]; first compound 0.8 µM) was 1.05. The relative viability ([5]; first compound 2.53 µM) was 1.11, the relative viability ([5]; first compound 8 µM) was 0.968 and the relative viability ([6]; first compound 0.08 µM) was 0.998. It also gave a relative viability ([6]; first compound 0.8 µM) of 1.21, a relative viability ([6]; first compound 2.53 µM) of 1.08 and a relative viability ([6]; first compound 8 µM) of 1.02. For the same compound, the relative viability ([7]; first compound 0.08 µM) was 0.836, the relative viability ([7]; first compound 0.8 µM) was 0.965 and the relative viability ([7]; first compound 2.53 µM) was 0.95. It also gave a relative viability ([7]; first compound 8 µM) of 1, a relative viability ([8]; first compound 0.08 µM) of 0.951 and a relative viability ([8]; first compound 0.8 µM) of 1.01. For the same compound, the relative viability ([8]; first compound 2.53 µM) was 1, the relative viability ([8]; first compound 8 µM) was 1.01 and the relative viability ([9]; first compound 0.08 µM) was 1. The relative viability ([9]; first compound 0.8 µM) was 1.13, the relative viability ([9]; first compound 2.53 µM) was 1.01 and the relative viability ([9]; first compound 8 µM) was 1.14. For the same compound, the relative viability ([10]; first compound 0.08 µM) was 0.996, the relative viability ([10]; first compound 0.8 µM) was 1.03 and the relative viability ([10]; first compound 2.53 µM) was 1.11. The relative viability ([10]; first compound 8 µM) was 1.08, the relative viability ([11]; first compound 0.08 µM) was 0.974 and the relative viability ([11]; first compound 0.8 µM) was 0.998. For the same compound, the relative viability ([11]; first compound 2.53 µM) was 1.08, the relative viability ([11]; first compound 8 µM) was 0.948 and the relative viability ([12]; first compound 0.08 µM) was 1.12. It also gave a relative viability ([12]; first compound 0.8 µM) of 1.21, a relative viability ([12]; first compound 2.53 µM) of 1.23 and a relative viability ([12]; first compound 8 µM) of 1.2. It also gave a relative viability ([13]; first compound 0.08 µM) of 0.968, a relative viability ([13]; first compound 0.8 µM) of 1.08 and a relative viability ([13]; first compound 2.53 µM) of 1.09. It also gave a relative viability ([13]; first compound 8 µM) of 0.978, a relative viability ([14]; first compound 0.08 µM) of 0.803 and a relative viability ([14]; first compound 0.8 µM) of 0.699. The relative viability ([14]; first compound 2.53 µM) was 0.876, the relative viability ([14]; first compound 8 µM) was 0.834 and the relative viability ([15]; first compound 0.08 µM) was 0.827. It also gave a relative viability ([15]; first compound 0.8 µM) of 0.968, a relative viability ([15]; first compound 2.53 µM) of 1.18 and a relative viability ([15]; first compound 8 µM) of 0.942. For the same compound, the relative viability ([16]; first compound 0.08 µM) was 1.14, the relative viability ([16]; first compound 0.8 µM) was 1.15 and the relative viability ([16]; first compound 2.53 µM) was 1.18. The relative viability ([16]; first compound 8 µM) was 0.961, the relative viability ([17]; first compound 0.08 µM) was 1.05 and the relative viability ([17]; first compound 0.8 µM) was 1.09. For the same compound, the relative viability ([17]; first compound 2.53 µM) was 1.22, the relative viability ([17]; first compound 8 µM) was 1.09 and the relative viability ([18]; first compound 0.08 µM) was 0.544. For the same compound, the relative viability ([18]; first compound 0.8 µM) was 0.601, the relative viability ([18]; first compound 2.53 µM) was 0.65 and the relative viability ([18]; first compound 8 µM) was 0.559. The relative viability ([19]; first compound 0.08 µM) was 1.15, the relative viability ([19]; first compound 0.8 µM) was 1.14 and the relative viability ([19]; first compound 2.53 µM) was 1.12. The relative viability ([19]; first compound 8 µM) was 1.2, the relative viability ([20]; first compound 0.08 µM) was 0.736 and the relative viability ([20]; first compound 0.8 µM) was 0.842. It also gave a relative viability ([20]; first compound 2.53 µM) of 0.912, a relative viability ([20]; first compound 8 µM) of 0.755 and a relative viability ([21]; first compound 0.08 µM) of 0.899. It also gave a relative viability ([21]; first compound 0.8 µM) of 0.926, a relative viability ([21]; first compound 2.53 µM) of 0.989 and a relative viability ([21]; first compound 8 µM) of 0.924. For the same compound, the relative viability ([22]; first compound 0.08 µM) was 0.819, the relative viability ([22]; first compound 0.8 µM) was 0.891 and the relative viability ([22]; first compound 2.53 µM) was 0.887. It also gave a relative viability ([22]; first compound 8 µM) of 0.75, a relative viability ([23]; first compound 0.08 µM) of 1.01 and a relative viability ([23]; first compound 0.8 µM) of 1.08. It also gave a relative viability ([23]; first compound 2.53 µM) of 1.14 and a relative viability ([23]; first compound 8 µM) of 1.08.
